Where two headings read alike, the source gives them in different places.
Tested on: Aβ1-42 production
Experiment: Cellular assay for inhibition of Aβ1-42 production (H4 APP751 SWE clone 8.20)
Assay type: cell-based
Conditions: 19 h, H4 APP751 SWE clone 8.20 cells, 19 h incubation
Method in brief: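 Aβ42 level read with antibodies 565, against the Aβ42 neoepitope, and N-terminal 26D6, incubated overnight at 4° C, after exposure of H4 APP751 SWE clone 8.20 cells to compound for 19 h at 37° C. Medium was DMEM plus 0.0125% BSA, 1.5×10^4 cells/well. IC50 values come from curve fitting.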

[1] = read-out: Activity Rating (based on Aβ42 cellular IC50 values)
[2] = read-out: Activity Rating (Aβ42 cellular IC50, given as a number)

Row | SMILES | IC50 [1] | IC50 [2]
1 | COc1cc(Nc2nc3c(s2)CCCC3(C)c2ccccc2)ccc1-n1cnc(Cl)c1 (stereo not drawn) [Example 73, N-(4-(4-chloro-1H-imidazol-1-yl)-3-methoxyphenyl)-4-methyl-4-phenyl-4,5,6,7-tetrahydrobenzo[d]thiazol-2-amine 2,2,2-trifluoroacetate] |  | 0.14 µM
2 | COc1cc(Nc2nc3c(s2)CC(N)CC3c2ccc(F)cc2)ccc1-n1cnc(Cl)c1 (stereo not drawn) [Example 77, N2-(4-(4-chloro-1H-imidazol-1-yl)-3-methoxyphenyl)-4-(4-fluorophenyl)-4,5,6,7-tetrahydrobenzo[d]thiazole-2,6-diamine] | 0.1 to 1 µM | 
3 | COc1cc(Nc2nc3c(s2)CC(N(C)C)CC3c2ccc(F)cc2)ccc1-n1cnc(Cl)c1 (stereo not drawn) [Example 78, N2-(4-(4-chloro-1H-imidazol-1-yl)-3-methoxyphenyl)-4-(4-fluorophenyl)-N6,N6-dimethyl-4,5,6,7-tetrahydrobenzo[d]thiazole-2,6-diamine] | 0.1 to 1 µM | 
4 | COc1cc(Nc2nc3c(s2)CCCC3Cc2ccccc2)ccc1-n1cnc(Cl)c1 (stereo not drawn) [Example 80, 4-benzyl-N-(4-(4-chloro-1H-imidazol-1-yl)-3-methoxyphenyl)-4,5,6,7-tetrahydrobenzo[d]thiazol-2-amine 2,2,2-trifluoroacetate] | 0.1 to 1 µM | 
5 | COc1cc(Nc2nc3c(s2)CCCC3(N)c2ccccc2)ccc1-n1cnc(C)n1 (stereo not drawn) [Example 82, N2-(3-methoxy-4-(3-methyl-1H-1,2,4-triazol-1-yl)phenyl)-4-phenyl-4,5,6,7-tetrahydrobenzo[d]thiazole-2,4-diamine] |  | 0.19 µM
6 | COc1cc(Nc2nc3c(s2)CCCC3(NCc2ccc(Cl)cc2)c2ccccc2)ccc1-n1cnc(Cl)c1 (stereo not drawn) [Example 83, N2-(4-(4-chloro-1H-imidazol-1-yl)-3-methoxyphenyl)-N4-(4-chlorobenzyl)-4-phenyl-4,5,6,7-tetrahydrobenzo[d]thiazole-2,4-diamine] | 0.1 to 1 µM | 
7 | COc1cc(Nc2nc3n(n2)CCCCC3c2ccc(F)cc2)cnc1-n1cnc(Cl)c1 (stereo not drawn) [Example 86, N-(6-(4-chloro-1H-imidazol-1-yl)-5-methoxypyridin-3-yl)-9-(4-fluorophenyl)-6,7,8,9-tetrahydro-5H-[1,2,4]triazolo[1,5-a]azepin-2-amine] |  | 0.006 µM
8 | COc1cc(Nc2cc3n(n2)C(c2ccc(F)cc2)CCC3)ccc1-n1cnc(Cl)c1 (stereo not drawn) [Example 90, N-(4-(4-chloro-1H-imidazol-1-yl)-3-methoxyphenyl)-7-(4-fluorophenyl)-4,5,6,7-tetrahydropyrazolo[1,5-a]pyridin-2-amine] |  | 0.012 µM
9 | COc1cc(Nc2nc3n(n2)CCCCC3(O)c2ccc(F)cc2)ccc1-n1cnc(Cl)c1 (stereo not drawn) [Example 92, 2-(4-(4-chloro-1H-imidazol-1-yl)-3-methoxyphenylamino)-9-(4-fluorophenyl)-6,7,8,9-tetrahydro-5H-[1,2,4]triazolo[1,5-a]azepin-9-ol] |  | 0.011 µM
10 | Cc1ncnn1-c1ccc(Nc2nc3n(n2)CCCCC3c2ccc(F)cc2)cc1F (stereo not drawn) [Example 93, N-(3-fluoro-4-(5-methyl-1H-1,2,4-triazol-1-yl)phenyl)-9-(4-fluorophenyl)-6,7,8,9-tetrahydro-5H-[1,2,4]triazolo[1,5-a]azepin-2-amine] | 0.01 to 0.1 µM | 
11 | Cc1ncnn1-c1ccc(Nc2nc3n(n2)CCCCC3c2ccc(OC(F)(F)F)cc2)cc1F (stereo not drawn) [Example 99, N-(3-fluoro-4-(5-methyl-1H-1,2,4-triazol-1-yl)phenyl)-9-(4-(trifluoromethoxy)phenyl)-6,7,8,9-tetrahydro-5H-[1,2,4]triazolo[1,5-a]azepin-2-amine] | 0.01 to 0.1 µM | 
12 | COc1cc(Nc2nc3n(n2)CCCCC3c2ccc(OCC(F)(F)F)cc2)ccc1-n1cnc(Cl)c1 (stereo not drawn) [Example 105, N-(4-(4-chloro-1H-imidazol-1-yl)-3-methoxyphenyl)-9-(4-(2,2,2-trifluoroethoxy)phenyl)-6,7,8,9-tetrahydro-5H-[1,2,4]triazolo[1,5-a]azepin-2-amine] | 0.01 to 0.1 µM | 
13 | Cc1ncn(-c2c(F)cc(Nc3nc4n(n3)CCCCC4c3ccc(OC(F)(F)F)cc3)cc2F)n1 (stereo not drawn) [Example 108, N-(3,5-difluoro-4-(3-methyl-1H-1,2,4-triazol-1-yl)phenyl)-9-(4-(trifluoromethoxy)phenyl)-6,7,8,9-tetrahydro-5H-[1,2,4]triazolo[1,5-a]azepin-2-amine] | 0.01 to 0.1 µM | 
14 | Cc1nc(C)n(-c2ccc(Nc3nc4n(n3)CCCCC4c3ccc(OCC(F)F)cc3)cc2F)n1 (stereo not drawn) [Example 109, 9-(4-(2,2-difluoroethoxy)phenyl)-N-(4-(3,5-dimethyl-1H-1,2,4-triazol-1-yl)-3-fluorophenyl)-6,7,8,9-tetrahydro-5H-[1,2,4]triazolo[1,5-a]azepin-2-amine 2,2,2-trifluoroacetate] |  | 0.24 µM
15 | Cc1ncnn1-c1ccc(Nc2nc3n(n2)CCCCC3c2ccc(OCC(F)(F)F)cc2)cc1F (stereo not drawn) [Example 110, N-(3-fluoro-4-(5-methyl-1H-1,2,4-triazol-1-yl)phenyl)-9-(4-(2,2,2-trifluoroethoxy)phenyl)-6,7,8,9-tetrahydro-5H-[1,2,4]triazolo[1,5-a]azepin-2-amine] | 0.01 to 0.1 µM | 
16 | Cc1ncn(-c2ccc(Nc3nc4n(n3)CCCCC4c3ccc(OCC(F)(F)F)cc3)cc2F)n1 (stereo not drawn) [Example 113, N-(3-fluoro-4-(3-methyl-1H-1,2,4-triazol-1-yl)phenyl)-9-(4-(2,2,2-trifluoroethoxy)phenyl)-6,7,8,9-tetrahydro-5H-[1,2,4]triazolo[1,5-a]azepin-2-amine] | 0.01 to 0.1 µM | 
17 | COc1cc(Nc2nc3n(n2)CCCCC3c2ccc(OCC(F)(F)F)cc2)c(F)cc1-n1cnc(C)n1 (stereo not drawn) [Example 116, N-(2-fluoro-5-methoxy-4-(3-methyl-1H-1,2,4-triazol-1-yl)phenyl)-9-(4-(2,2,2-trifluoroethoxy)phenyl)-6,7,8,9-tetrahydro-5H-[1,2,4]triazolo[1,5-a]azepin-2-amine] | 0.01 to 0.1 µM | 
18 | Cc1ncnn1-c1ccc(Nc2nc3n(n2)CCCCC3c2ccc(OCC(F)F)cc2)cc1F (stereo not drawn) [Example 119, 9-(4-(2,2-difluoroethoxy)phenyl)-N-(3-fluoro-4-(5-methyl-1H-1,2,4-triazol-1-yl)phenyl)-6,7,8,9-tetrahydro-5H-[1,2,4]triazolo[1,5-a]azepin-2-amine] | 0.01 to 0.1 µM | 

More lines, now with the values ahead:

Row | IC50 [1] | IC50 [2] | SMILES
19 | 0.01 to 0.1 µM |  | COc1cc(Nc2nc3c(s2)CCCC3c2ccccc2)ccc1-n1cnc(C)c1 (stereo not drawn) [Example 71, N-(3-methoxy-4-(4-methyl-1H-imidazol-1-yl)phenyl)-4-phenyl-4,5,6,7-tetrahydrobenzo[d]thiazol-2-amine 2,2,2-trifluoroacetate]
20 | 0.01 to 0.1 µM |  | COc1cc(Nc2nc3c(s2)CCCC3c2ccccc2)ccc1-c1ccnc(C)c1 (stereo not drawn) [Example 72, N-(3-methoxy-4-(2-methylpyridin-4-yl)phenyl)-4-phenyl-4,5,6,7-tetrahydrobenzo[d]thiazol-2-amine 2,2,2-trifluoroacetate]
21 | 0.01 to 0.1 µM |  | COc1cc(Nc2nc3c(s2)CC2(CC3c3ccc(F)cc3)OCCO2)ccc1-n1cnc(Cl)c1 (stereo not drawn) [Example 74, N-(4-(4-chloro-1H-imidazol-1-yl)-3-methoxyphenyl)-4-(4-fluorophenyl)-5,7-dihydro-4H-spiro[benzo[d]thiazole-6,2′-[1,3]dioxolan]-2-amine]
22 | 0.01 to 0.1 µM |  | COc1cc(Nc2nc3c(s2)CC(=O)CC3c2ccc(F)cc2)ccc1-n1cnc(Cl)c1 (stereo not drawn) [Example 75, 2-(4-(4-chloro-1H-imidazol-1-yl)-3-methoxyphenylamino)-4-(4-fluorophenyl)-4,5-dihydrobenzo[d]thiazol-6(7H)-one]
23 | < 0.01 µM |  | COc1cc(Nc2nc3c(s2)CC(O)CC3c2ccc(F)cc2)ccc1-n1cnc(Cl)c1 (stereo not drawn) [Example 76, 2-(4-(4-chloro-1H-imidazol-1-yl)-3-methoxyphenylamino)-4-(4-fluorophenyl)-4,5,6,7-tetrahydrobenzo[d]thiazol-6-ol]
24 | 0.01 to 0.1 µM |  | CNC1Cc2sc(Nc3ccc(-n4cnc(Cl)c4)c(OC)c3)nc2C(c2ccc(F)cc2)C1 (stereo not drawn) [Example 79, N2-(4-(4-chloro-1H-imidazol-1-yl)-3-methoxyphenyl)-4-(4-fluorophenyl)-N-6-methyl-4,5,6,7-tetrahydrobenzo[d]thiazole-2,6-diamine]
25 | 0.01 to 0.1 µM |  | COc1cc(Nc2nc3c(s2)CCCC3(O)c2ccccc2)ccc1-n1cnc(C)n1 (stereo not drawn) [Example 81, 2-(3-methoxy-4-(3-methyl-1H-1,2,4-triazol-1-yl)phenylamino)-4-phenyl-4,5,6,7-tetrahydrobenzo[d]thiazol-4-ol]
26 | 0.01 to 0.1 µM |  | COc1cc(Nc2nc3c(s2)CC(OC)(OC)CC3c2ccc(F)cc2)ccc1-n1cnc(Cl)c1 (stereo not drawn) [Example 84, N-(4-(4-chloro-1H-imidazol-1-yl)-3-methoxyphenyl)-4-(4-fluorophenyl)-6,6-dimethoxy-4,5,6,7-tetrahydrobenzo[d]thiazol-2-amine]
27 | 0.01 to 0.1 µM |  | COc1cc(Nc2nc3c(s2)CCCCC3c2ccc(F)cc2)ccc1-n1cnc(Cl)c1 (stereo not drawn) [Example 85, N-(4-(4-chloro-1H-imidazol-1-yl)-3-methoxyphenyl)-4-(4-fluorophenyl)-5,6,7,8-tetrahydro-4H-cyclohepta[d]thiazol-2-amine 2,2,2-trifluoroacetate]
28 | 0.01 to 0.1 µM |  | COc1cc(Nc2nc3n(n2)C(c2ccc(F)cc2)CCC3)ccc1-n1cnc(Cl)c1 (stereo not drawn) [Example 89, N-(4-(4-chloro-1H-imidazol-1-yl)-3-methoxyphenyl)-5-(4-fluorophenyl)-5,6,7,8-tetrahydro-[1,2,4]triazolo[1,5-a]pyridin-2-amine 2,2,2-trifluoroacetate]
29 | < 0.01 µM |  | Cc1ncn(-c2ccc(Nc3nc4n(n3)CCCCC4c3ccc(OC(F)(F)F)cc3)cc2F)n1 (stereo not drawn) [Example 96, N-(3-fluoro-4-(3-methyl-1H-1,2,4-triazol-1-yl)phenyl)-9-(4-(trifluoromethoxy)phenyl)-6,7,8,9-tetrahydro-5H-[1,2,4]triazolo[1,5-a]azepin-2-amine]
30 | < 0.01 µM |  | COc1cc(Nc2nc3n(n2)CCCCC3c2ccc(OC(C)C)cc2)ccc1-n1cnc(Cl)c1 (stereo not drawn) [Example 102, N-(4-(4-chloro-1H-imidazol-1-yl)-3-methoxyphenyl)-9-(4-isopropoxyphenyl)-6,7,8,9-tetrahydro-5H-[1,2,4]triazolo azepin-2-amine]

— patent US8349880B2, “Bicyclic compounds for the reduction of beta-amyloid production” (Bristol-Myers Squibb Company, priority 2009, dated 2013)
